From patent publication US12709608B2, “4-amino pyrimidine compounds for the treatment of cancer” (University of Rochester, priority 2021, dated 2026) come the findings set out here.

One may read the IC50 as the midpoint of a concentration-inhibition curve.

“Also recorded” adds a separate entry of the source. Like-named read-outs stand apart in the source and are kept apart here.

The nature of data set [1]: Biodistribution in brainstem and serum of mice, HPLC analysis of tissue extracts. The format is in vivo. To be noted: for concentration at 3 h: ip, 3 hours after intraperitoneal injection. The source says: Study of JMJD3 demethylase inhibitors. […] Because of its promising anti-tumor activities, GSK-J4 has been used to treat many kinds of tumors in preclinical models including T-cell acute lymphoblastic leukemia, acute myeloid leukemia, diffuse large B-cell lymphoma, neuroblastoma, prostate cancer, gastric cancer, and DIPG. The major challenge of GSK-J4 in clinical development is that GSK-J4 is a prodrug and is rapidly converted to the active drug […] in vivo (FIG. 1). […] The development of novel compounds such as UR-8 offered desirable properties including good cellular and brain transport which is essential to improving in vivo efficacy.
UR-8 was administered by intraperitoneal injection to mice that were euthanized at 3 hours following UR-8 administration. Their brains were immediately resected, the brainstem was dissected from the surrounding brain, and the serum was collected by cardiac puncture. […] GSK-J1 was highly detected in either serum and brainstem in the mice treated with GSK-J4 in compared to that of the mice treated with UR-8. GSK-J4 was not detected in any specimens from mice treated with GSK-J4.

Data set [2] deals with SF8628 intracranial (brainstem) tumor. Kind of data set: In vivo anti-tumor activity in patient-derived K27M DIPG xenografted mice. Conditions: for Survival, log-rank test P, control vs. compound: vs vehicle control (DMSO). As for the experimental part:
Mice with SF8628 intracranial (brainstem) tumor were randomized to four treatment groups: vehicle control (DMSO, n=7), GSK-J4 (100 mg/kg/day for 10 consecutive days, n=8), UR-8 (100 mg/kg/day for 10 consecutive days, n=8), and UR-17 (100 mg/kg/day for 10 consecutive days, n=8). FIG. 3 (A) Upper: Growth plots for intracranial tumors using tumor bioluminescence values. Lower: Corresponding tumor bioluminescence intensity overlay images for representative vehicle-treated, GSK-J4, UR-17, and UR-8-treated mice. FIG. 3 (B) Corresponding survival plots for each experiment. Statistical analysis was performed using a log-rank test: control vs. GSK-J4, **P=0.0094; control vs. UR-8, ***P=0.0002; control vs. UR-17, ***P=0.0008; GSK-J4 vs. UR-8, ***P=0.0008; UR-8 vs. UR-17, *P=0.0197. FIG. 3 (c) Effects of UR-8 on cell proliferation.
UR-8 inhibited tumor growth and prolonged survival of mice bearing human DIPG xenografts—Based on the biological effects of UR-analogs in vitro, it was hypothesized that UR-analogs would suppress tumor growth and increase survival in mice with orthotopic (brainstem) human DIPG xenografts. To determine in vivo anti-tumor activity of UR-analogs, the mice were implanted with SF8628 DIPG cells in the brainstem and were treated with 100 mg/kg of GSK-J4, UR-8, and UR-17 for 10 consecutive days.

Data set [3] deals with H3K27M DIPG cell lines (H3.3 K27M SF8628, H3.3 K27M DIPG-007, and H3.1 K27M SU-DIPGIV). Kind of data set: Inhibition of DIPG cell growth (cytotoxic activity), 72 hours treatment. Format: cell-based. Conditions: Homo sapiens; three H3K27M mutant DIPG cell lines (SF8628, DIPG-007, SU-DIPGIV), treated for 72 hours. On the procedure: Specifically, UR-8 and UR-17 induced dose dependent inhibition of the growth of K27M DIPG cells—To determine the potential of the UR-analog series, UR-8 and UR-17 were selected for initial studies on DIPG cell growth. Thus, three H3K27M DIPG cell lines (H3.3 K27M SF8628, H3.3 K27M DIPG-007, and H3.1 K27M SU-DIPGIV) were treated with GSK-J4 (R&D System), UR-8, and UR-17 for 72 hours.

[4] abbreviates: SF8628 brainstem xenograft, 100 mg/kg for 10 consecutive days.
[5] abbreviates: SF8628 brainstem xenograft, 100 mg/kg/day for 10 consecutive days.

Regarding `CCOC(=O)CCNc1cc(N2CCc3ccccc3CC2)nc(-c2ccccn2)n1` [GSK-J4], the “GSK-J1 concentration, Brainstem” value in data set [1] (GSK-J4 treated mice, analyte GSK-J1, 3 hours after administration) amounted to 141.5 ± 50.2 ng/mL. Further, the “GSK-J1 concentration, Serum” value in data set [1] (GSK-J4 treated mice, analyte GSK-J1, 3 hours after administration, intraperitoneal) was determined as 31250 ± 18879 ng/mL. For the same compound, the “Brain penetration ratio (GSK-J1)” value in data set [1] (brainstem concentration as % of serum concentration, analyte GSK-J1, GSK-J4 treated mice) was 0.61 ± 0.53%. Also, the “Species found in brainstem tissue after GSK-J4 treatment” value in data set [1] (mice euthanized at 3 hours after completion of GSK-J4 treatment) is on record as “only GSK-J1”. Moreover, the “GSK-J4 detection in specimens from mice treated with GSK-J4” value in data set [1] (serum and brainstem, HPLC) is on record as “not detected”. For the same compound, in data set [2] (setting [4]), the “Survival benefit of treated mice” value is “substantial survival benefit” and the “Tumor growth rate (bioluminescence monitoring)” value was “reduced tumor growth rate”. In addition, in data set [2] (setting [5]), the “Survival, log-rank test P, control vs. compound” value was determined as 0.0094.

`OCCCNc1cc(N2CCc3ccccc3CC2)nc(-c2ccccn2)n1` [UR-8, 3-((2-(pyridin-2-yl)-6-(1,2,4,5-tetrahydro-3H-benzo[d]azepin-3-yl)pyrimidin-4-yl)amino)propan-1-ol] returned an IC50 in data set [3] of 4 to 6 µM. For the same compound, the “Brain penetration ratio (UR-8)” value in data set [1] (brainstem concentration as % of serum concentration, analyte UR-8, UR-8 treated mice) amounted to 8.77 ± 2.37%. In data set [1] (mouse, brainstem relative to serum, intraperitoneal, brainstem concentration as % of serum concentration, analyte UR-8, UR-8 treated mice, read-out: Brain penetration ratio (UR-8)), the Kp at 3 h is 0.0877 ± 0.0237. In data set [1] (mouse, brainstem, UR-8 treated mice, analyte UR-8, read-out: UR-8 concentration, Brainstem), the concentration at 3 h was found to be 410 ± 244 ng/mL. Moreover, the concentration at 3 h in data set [1] (mouse, serum, UR-8 treated mice, analyte UR-8, read-out: UR-8 concentration, Serum) worked out at 4460 ± 1580 ng/mL. Moreover, the “Survival benefit of treated mice” value in data set [2] (setting [4]) is reported as “significant benefit”. Further, in data set [2] (setting [5]), the “Survival, log-rank test P, GSK-J4 vs. UR-8” value amounted to 0.0008; the “Survival, log-rank test P, UR-8 vs. UR-17” value is 0.0197; the “Survival, log-rank test P, control vs. compound” value is recorded as 0.0002. The “Therapeutic benefit compared with the other compounds” value in data set [2] (intracranial (brainstem) human DIPG xenografted mice, comparison with GSK-J4 / UR-17) is “outperforming either GSK-J4 or UR-17; also recorded: greater anti-tumor activity and survival benefit than that obtained by GSK-J4 treatment”.
